Measured values as given in patent publication US20170008888A1 (KYORIN PHARMACEUTICAL CO., LTD., priority 2014, published 2017).
Where two headings read alike, the source gives them in different places.

Legend:
Type in all cases: binding
AurB or AurC = assay: Probe-based (AX9989) kinase profiling in Jurkat lysate: AurB or AurC
Outline: (§1)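 Read-out: LC/MS intensity of desthiobiotinylated kinase active-site peptides, percent inhibition normalized to no-compound lysate. Jurkat lysate with 20 mM MnCl2 received compound for 15 min at room temperature, then 5 μM AX9989 probe; duplicates.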

TAO2 = molecular target: T1, TAO2 (Homo sapiens, UniProt Q9UL54); assay: Probe-based (AX9989) kinase profiling in Jurkat lysate: TAO2; settings: for inhibition at 0.1 µM: screening concentration 0.1 μM; for inhibition at 10 µM: screening concentration 10 μM
T1 construct: screened for activity against several kinases in Jurkat cells; endogenous in cells; host or cells: Jurkat cell lysate
T1 sequence (Q9UL54 1-1235): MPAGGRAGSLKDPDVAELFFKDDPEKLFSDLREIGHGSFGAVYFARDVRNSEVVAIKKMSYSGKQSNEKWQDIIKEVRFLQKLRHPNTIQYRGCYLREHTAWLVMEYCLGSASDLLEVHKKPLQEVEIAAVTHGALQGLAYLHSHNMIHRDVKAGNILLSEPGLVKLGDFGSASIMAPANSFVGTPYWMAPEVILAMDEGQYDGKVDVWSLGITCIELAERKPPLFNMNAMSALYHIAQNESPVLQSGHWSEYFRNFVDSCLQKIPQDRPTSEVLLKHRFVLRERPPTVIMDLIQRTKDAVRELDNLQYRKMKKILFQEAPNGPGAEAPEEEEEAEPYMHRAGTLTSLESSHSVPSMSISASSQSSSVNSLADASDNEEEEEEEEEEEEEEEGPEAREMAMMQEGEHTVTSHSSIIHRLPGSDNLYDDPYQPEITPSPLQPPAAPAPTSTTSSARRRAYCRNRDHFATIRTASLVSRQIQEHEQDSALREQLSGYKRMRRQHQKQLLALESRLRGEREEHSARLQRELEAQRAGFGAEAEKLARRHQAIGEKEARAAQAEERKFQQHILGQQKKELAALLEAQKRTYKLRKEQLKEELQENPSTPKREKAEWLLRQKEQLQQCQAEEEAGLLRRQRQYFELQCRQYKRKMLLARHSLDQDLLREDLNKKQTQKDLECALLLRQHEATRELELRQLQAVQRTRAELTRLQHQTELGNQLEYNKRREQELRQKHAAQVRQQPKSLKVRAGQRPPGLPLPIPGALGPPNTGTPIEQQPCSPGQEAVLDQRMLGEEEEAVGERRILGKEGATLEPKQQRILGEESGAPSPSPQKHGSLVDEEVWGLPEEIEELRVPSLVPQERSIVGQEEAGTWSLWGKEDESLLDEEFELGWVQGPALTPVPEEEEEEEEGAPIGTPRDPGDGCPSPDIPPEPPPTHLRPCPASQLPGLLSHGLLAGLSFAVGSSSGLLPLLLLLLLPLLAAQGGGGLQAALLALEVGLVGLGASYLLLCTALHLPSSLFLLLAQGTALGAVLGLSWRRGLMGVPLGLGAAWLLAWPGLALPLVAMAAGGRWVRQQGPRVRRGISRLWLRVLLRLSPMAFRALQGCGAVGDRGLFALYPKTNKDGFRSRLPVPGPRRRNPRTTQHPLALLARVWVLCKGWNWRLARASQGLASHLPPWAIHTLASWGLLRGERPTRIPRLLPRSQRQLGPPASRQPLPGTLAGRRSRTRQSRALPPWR
Outline: as §1

AurA = molecular target: T2, AurA (Homo sapiens, UniProt O14965); assay: Probe-based (AX9989) kinase profiling in Jurkat lysate: AurA; settings: for inhibition at 0.1 µM: screening concentration 0.1 μM; for inhibition at 10 µM: screening concentration 10 μM
T2 construct: screened for activity against several kinases in Jurkat cells; endogenous in cells; host or cells: Jurkat cell lysate
T2 sequence (O14965 1-403): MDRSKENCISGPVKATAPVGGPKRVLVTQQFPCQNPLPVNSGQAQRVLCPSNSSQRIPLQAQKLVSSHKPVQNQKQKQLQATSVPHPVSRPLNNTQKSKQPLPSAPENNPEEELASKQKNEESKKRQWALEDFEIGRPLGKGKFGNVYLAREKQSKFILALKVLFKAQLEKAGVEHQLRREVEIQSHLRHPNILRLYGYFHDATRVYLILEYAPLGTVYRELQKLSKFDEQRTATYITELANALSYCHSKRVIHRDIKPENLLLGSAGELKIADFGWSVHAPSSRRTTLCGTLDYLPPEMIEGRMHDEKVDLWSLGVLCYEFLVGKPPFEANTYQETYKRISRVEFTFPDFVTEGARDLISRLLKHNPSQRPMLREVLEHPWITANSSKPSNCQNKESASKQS
Outline: as §1

AMPKa1 or AMPKa2 = assay: Probe-based (AX9989) kinase profiling in Jurkat lysate: AMPKa1 or AMPKa2
Outline: as §1

[1] = read-out: Kinase inhibition % at indicated screening concentration: TAO2
[2] = read-out: Kinase inhibition % at indicated screening concentration: AurA
[3] = screening concentration 1 μM, read-out: TAO2 Inhibition % at indicated screening concentration
[4] = screening concentration 1 μM, read-out: AurA Inhibition % at indicated screening concentration
[5] = read-out: TAO2 Inhibition % at indicated screening concentration
[6] = read-out: AurA Inhibition % at indicated screening concentration
[7] = screening concentration 1.0 μM, read-out: Kinase inhibition % at indicated screening concentration: TAO2
[8] = screening concentration 1.0 μM, read-out: Kinase inhibition % at indicated screening concentration: AurA

CCOc1cc(C(N)=O)ccc1Nc1cc2c(cn1)N(C)C(=O)c1ccccc1N2C [Compound 51]
Kinase inhibition % at indicated screening concentration: AurB or AurC (AurB or AurC; screening concentration 0.1 μM): E (E is ≦35%)
inhibition at 0.1 µM (TAO2; [1]): ≤ 35%
inhibition at 0.1 µM (AurA; [2]): ≤ 35%
Kinase inhibition % at indicated screening concentration: AMPKa1 or AMPKa2 (AMPKa1 or AMPKa2; screening concentration 0.1 μM): E (E is ≦35%)

CCOc1cc(C(=O)N2CCN(CCN3CCOCC3)CC2)ccc1Nc1cc2c(cn1)N(C)C(=O)c1ccccc1N2C [Compound T15]
AurB or AurC Inhibition % at indicated screening concentration (AurB or AurC; screening concentration 1 μM): E (E is ≦35%)
inhibition at 1 µM (TAO2; [3]): ≤ 35%
inhibition at 1 µM (AurA; [4]): ≤ 35%
AMPKa1 or AMPKa2 Inhibition % at indicated screening concentration (AMPKa1 or AMPKa2; screening concentration 1 μM): E (E is ≦35%)

CCOc1cc(C(=O)N2CCN(C3CCN(C)CC3)CC2)ccc1Nc1cc2c(cn1)N(C)C(=O)c1ccccc1O2 [Compound T98]
AurB or AurC Inhibition % at indicated screening concentration (AurB or AurC; screening concentration 10 μM): E (E is ≦35%)
inhibition at 10 µM (TAO2; [5]): ≤ 35%
inhibition at 10 µM (AurA; [6]): ≤ 35%
AMPKa1 or AMPKa2 Inhibition % at indicated screening concentration (AMPKa1 or AMPKa2; screening concentration 10 μM): E (E is ≦35%)

CCOc1cc(C(=O)N2CCC(CN3CCOCC3)CC2)ccc1Nc1cc2c(cn1)N(C)C(=O)c1ccccc1N2C [Compound 120]
Kinase inhibition % at indicated screening concentration: AurB or AurC (AurB or AurC; screening concentration 1.0 μM): E (E is ≦35%)
inhibition at 1 µM (TAO2; [7]): ≤ 35%
inhibition at 1 µM (AurA; [8]): ≤ 35%
Kinase inhibition % at indicated screening concentration: AMPKa1 or AMPKa2 (AMPKa1 or AMPKa2; screening concentration 1.0 μM): E (E is ≦35%)

CCOc1cc(C(=O)N2CC[C@@H](N(C)C)C2)ccc1Nc1cc2c(cn1)N(C)C(=O)c1ccccc1N2C [Compound 115]
Kinase inhibition % at indicated screening concentration: AurB or AurC (AurB or AurC; screening concentration 1.0 μM): E (E is ≦35%)
inhibition at 1 µM (TAO2; [7]): ≤ 35%
inhibition at 1 µM (AurA; [8]): ≤ 35%
Kinase inhibition % at indicated screening concentration: AMPKa1 or AMPKa2 (AMPKa1 or AMPKa2; screening concentration 1.0 μM): E (E is ≦35%)

COc1cc(C(=O)N2CCC(N(C)C)C2)ccc1Nc1cc2c(cn1)N(C)C(=O)c1ccccc1N2C (centres unmarked) [Compound 70]
Kinase inhibition % at indicated screening concentration: AurB or AurC (AurB or AurC; screening concentration 0.1 μM): E (E is ≦35%)
inhibition at 0.1 µM (TAO2; [1]): ≤ 35%
inhibition at 0.1 µM (AurA; [2]): ≤ 35%
Kinase inhibition % at indicated screening concentration: AMPKa1 or AMPKa2 (AMPKa1 or AMPKa2; screening concentration 0.1 μM): E (E is ≦35%)

CN1C(=O)c2ccccc2N(C)c2cc(NC3CCC(C(=O)NC4CCOCC4)CC3)ncc21 (centres unmarked) [Compound 64]
Kinase inhibition % at indicated screening concentration: AurB or AurC (AurB or AurC; screening concentration 1.0 μM): E (E is ≦35%)
inhibition at 1 µM (TAO2; [7]): ≤ 35%
inhibition at 1 µM (AurA; [8]): ≤ 35%
Kinase inhibition % at indicated screening concentration: AMPKa1 or AMPKa2 (AMPKa1 or AMPKa2; screening concentration 1.0 μM): E (E is ≦35%)

CC(C)Oc1cc(C(=O)N2CC[C@@H](NCCF)C2)ccc1Nc1cc2c(cn1)N(C)C(=O)c1ccccc1N2C [Compound T50]
AurB or AurC Inhibition % at indicated screening concentration (AurB or AurC; screening concentration 1 μM): E (E is ≦35%)
inhibition at 1 µM (TAO2; [3]): ≤ 35%
inhibition at 1 µM (AurA; [4]): ≤ 35%
AMPKa1 or AMPKa2 Inhibition % at indicated screening concentration (AMPKa1 or AMPKa2; screening concentration 1 μM): E (E is ≦35%)

COc1cccc2c1Oc1cc(N[C@H]3CC[C@H](O)CC3)ncc1N(C)C2=O [Compound T95]
AurB or AurC Inhibition % at indicated screening concentration (AurB or AurC; screening concentration 10 μM): E (E is ≦35%)
inhibition at 10 µM (TAO2; [5]): 50 to 75%
inhibition at 10 µM (AurA; [6]): ≤ 35%
AMPKa1 or AMPKa2 Inhibition % at indicated screening concentration (AMPKa1 or AMPKa2; screening concentration 10 μM): D (D is >35% to ≦50%)

CCOc1cc(C(=O)N2C[C@H]3CCN[C@H]3C2)ccc1Nc1cc2c(cn1)N(C)C(=O)c1ccccc1N2C [Compound T5]
AurB or AurC Inhibition % at indicated screening concentration (AurB or AurC; screening concentration 1 μM): E (E is ≦35%)
inhibition at 1 µM (TAO2; [3]): ≤ 35%
inhibition at 1 µM (AurA; [4]): ≤ 35%
AMPKa1 or AMPKa2 Inhibition % at indicated screening concentration (AMPKa1 or AMPKa2; screening concentration 1 μM): E (E is ≦35%)

CCOc1cc(C(=O)N2CCCN(C)CC2)ccc1Nc1cc2c(cn1)N(C)C(=O)c1ccccc1N2C [Compound 8]
Kinase inhibition % at indicated screening concentration: AurB or AurC (AurB or AurC; screening concentration 1.0 μM): E (E is ≦35%)
inhibition at 1 µM (TAO2; [7]): ≤ 35%
inhibition at 1 µM (AurA; [8]): ≤ 35%
Kinase inhibition % at indicated screening concentration: AMPKa1 or AMPKa2 (AMPKa1 or AMPKa2; screening concentration 1.0 μM): E (E is ≦35%)
